Experimental data published in patent publication US11096951B2, “Prebiotic composition containing butyryl-fructooligosaccharides” (priority 2018, dated 2021).

Key:
Bac. Fragilis = experiment: Analysis of bacterial culture supernatant (HPLC organic acids); assay type: cell-based; conditions: substance as carbon source
Bac. Thetaiotaomicron = experiment: as above; assay type: cell-based; conditions: substance as carbon source
B. catenulatum = experiment: as above; assay type: cell-based, Bifidobacterium catenulatum; conditions: substance as carbon source
B. bifidum BGN4 = experiment: as above; assay type: cell-based, Bifidobacterium bifidum; conditions: substance as carbon source
B. longum BORI = experiment: Analysis of bacterial culture supernatant (TLC, HPLC organic acids); assay type: cell-based, Bifidobacterium longum; conditions: substance as carbon source
[1] = tested on: all bacteria used for tests; experiment: Microbial growth curve (OD600), all bacteria used for tests; assay type: cell-based; conditions: compared to positive control (glucose)
Experimental: (§1) All strains were obtained from the official institute of strain distribution or by the food microbiology laboratory of Seoul National University. Eight bifidobacteria strains, four Lactobacillus (lactic acid bacteria) strains, lactis KCTC 2013 (Lactococcus lactis subsp. lactis KCTC 2013), and Streptococcus thermophilus KCTC 3779 were sub-cultured in MRS supplemented with 0.05% (w/v) L-cysteine.HCl (de-Mann-Rogosa-Sharpe broth; Difco, Detroit, USA) at 37° C., twice every 18 hours prior to use. Other strains were sub-cultured in BHIB (brain-heart infusion broth; Difco) under the same culture conditions as above prior to use.
(§2) A basal medium used for the bacterial growth test was sugar-free BHIB (MB Cell, Los Angeles, Calif., USA). […]
(§3) In order to remove glucose or other carbon source present in a culture medium of activated bacteria, cultured bacteria were centrifuged (15,000×g, 5 min), the supernatant was discarded and the precipitated bacteria were washed with PBS (pH 7.4) twice. […] Bacterial proliferation was checked by measuring optical density (OD) of the culture solution, absorbance at 600 nm was measured with a microplate reader (BioRad, Hercules, Calif., USA) and a growth curve was made. Bacterial growth was analyzed by comparing maximum OD600 values at a substance concentration of 1% (w/v). […]

all strains = experiment: Analysis of bacterial culture supernatant (HPLC organic acids), all strains; assay type: cell-based; conditions: medium containing the substance
Clostridium butyricum = assay type: cell-based; conditions: 1% (w/v)
Staphylococcus aureus = experiment: Microbial growth curve (OD600); assay type: cell-based; conditions: 1% (w/v)
Experimental: as §1, §2, §3

E. Faecalis = experiment: Analysis of bacterial culture supernatant (TLC, HPLC organic acids); assay type: cell-based, Enterococcus faecalis; conditions: substance as carbon source
E. coli = experiment: Analysis of bacterial culture supernatant (HPLC organic acids); assay type: cell-based, Escherichia coli; conditions: substance as carbon source
B. longum RD47 = experiment: as above; assay type: cell-based, Bifidobacterium longum; conditions: substance as carbon source
[2] = Cell viability by MTT analysis; assay type: cell-based; conditions: human, Caco-2 cells, percentage of control
Experimental: MTT analysis was conducted to confirm cytotoxicity derived from B-FOS. 100 μl of Caco-2 cells were seeded at a density of 2,000 cells/well onto a 96-well plate and cultured at 37° C. in a 5% CO2 cell incubator for 48 hours. […] After completion of culture, 20 μl of a 5 mg/mL MTT solution was added to each well, reaction was conducted for 4 hours again and the supernatant was removed. The formed crystal was dissolved in 100 μl of dimethyl sulfoxide (DMSO) and an absorbance at 750 nm was measured using a microplate spectrophotometer. Cell viability was represented as a percentage with respect to the control group with no treatment and a mean of values by repeating the test four times was indicated (FIG. 16).

Caco-2 cells = experiment: Change in growth of Caco-2 cells depending on medium composition (trypan blue cell count); conditions: 4 days
Experimental: To avoid main use of glucose as an energy source for cell growth in a standard culture medium of Caco-2 cells containing a high concentration of glucose (4.5 g/L), cellular growth was compared in the presence of a high concentration of glucose (4.5 g/L) and pyruvate using a glucose-free DMEM (Dulbecco's modified Eagle's medium; Gibco BRL, Grand Island, N.Y., USA).
10% (w/v) solutions of NaB, FOS and B-FOS in PBS were prepared and filtered through a 0.2 μm membrane filter. NaB, FOS and B-FOS were each prepared at a concentration of 0.005 to 0.06% (w/v) in a DMEM medium containing high concentrations of glucose (4.5 g/L) and pyruvate (Glu+Pyr+) and a DMEM medium not containing the same (Glu−Pyr−), and were then used for the test.
5×10^5 cells were seeded in a dose of 1.5 mL in a 25 cm^2 flask (SPL Life Science, Pocheon, South Korea) and cultured for 3 days in 37° C., 5% CO2 cell incubator until 50% confluence was obtained. Then, the medium was replaced with a medium supplemented with 0.005 to 0.06% (w/v) of NaB, FOS and B-FOS and then cultured under the same conditions for 4 days. The culture supernatant was harvested for testing and adsorbed cells were washed with PBS twice, were treated with trypsin/EDTA, and were isolated from the flask. […] The control group was a medium supplemented with PBS and a mean of values obtained by repeating tests three times is shown.

L. casei = experiment: Analysis of bacterial culture supernatant (HPLC organic acids); assay type: cell-based, Lactobacillus casei; conditions: substance as carbon source

Q: What does the source list for `CCCC(=O)[O-].[Na+]` [NaB, Sodium Butyrate]?
A: Acetic acid (Bac. Fragilis): + (0.05% (v/v) or less); Butyric acid (Bac. Fragilis): +++ (no more than 0.25% (v/v)); Lactic acid (Bac. Fragilis): + (0.05% (v/v) or less); Acetic acid (Bac. Thetaiotaomicron): + (0.05% (v/v) or less); Butyric acid (Bac. Thetaiotaomicron): +++ (no more than 0.25% (v/v)); Lactic acid (Bac. Thetaiotaomicron): −; Acetic acid (B. catenulatum): + (0.05% (v/v) or less); Butyric acid (B. catenulatum): +++ (no more than 0.25% (v/v)); Lactic acid (B. catenulatum): ++ (0.05% (v/v) − 0.25% (v/v)); Acetic acid (B. bifidum BGN4): + (0.05% (v/v) or less); Butyric acid (B. bifidum BGN4): +++ (no more than 0.25% (v/v)); Lactic acid (B. bifidum BGN4): + (0.05% (v/v) or less); Acetic acid (B. longum BORI): + (0.05% (v/v) or less); Butyric acid (B. longum BORI): +++ (no more than 0.25% (v/v)); Lactic acid (B. longum BORI): + (0.05% (v/v) or less); growth / use by bacteria used for tests [1]: could not be grown well; butyric acid in culture solutions (HPLC) (all strains): detected; growth of bacteria (Clostridium butyricum; vs negative control): significantly inhibited; maximum OD600 (Clostridium butyricum; negative control OD600=0.49): 0.42; growth of bacteria (Staphylococcus aureus; vs negative control): significantly inhibited; maximum OD600 (Staphylococcus aureus; negative control OD600=0.36): 0.25; Acetic acid (E. Faecalis): + (0.05% (v/v) or less); Butyric acid (E. Faecalis): +++ (no more than 0.25% (v/v)); Lactic acid (E. Faecalis): + (0.05% (v/v) or less); Acetic acid (E. coli): + (0.05% (v/v) or less); Butyric acid (E. coli): +++ (no more than 0.25% (v/v)); Lactic acid (E. coli): −; Acetic acid (B. longum RD47): + (0.05% (v/v) or less); Butyric acid (B. longum RD47): +++ (no more than 0.25% (v/v)); Lactic acid (B. longum RD47): + (0.05% (v/v) or less); viability at 48 h, 0.1 % (w/v) ([2]; after 48 hours): 81 ± 15%; viability at 72 h, 0.1 % (w/v) ([2]; after 72 hours): 45 ± 6.9%; decrease in the number of cells as compared to the control group (Caco-2 cells; Glu+Pyr+ medium, 0.005% (w/v)): about 30%; decrease in the number of cells as compared to the control group (Caco-2 cells; Glu+Pyr+ medium, 0.04% (w/v)): ~50%; decrease in the number of cells as compared to the control group (Caco-2 cells; Glu+Pyr+ medium, 0.06% (w/v)): ~65%; number of cells vs control group (Caco-2 cells; Glu−Pyr− medium, 0.005% (w/v)): increased; number of cells vs control group (Caco-2 cells; Glu−Pyr− medium, 0.02% (w/v)): increased; number of cells vs control group (Caco-2 cells; Glu−Pyr− medium, 0.04% (w/v)): no significant difference; decrease in the number of cells as compared to the control group (Caco-2 cells; Glu−Pyr− medium, 0.06% (w/v)): 35%; Acetic acid (L. casei): + (0.05% (v/v) or less); Butyric acid (L. casei): +++ (no more than 0.25% (v/v)); Lactic acid (L. casei): + (0.05% (v/v) or less)
